For one assay, the target named is A2A adenosine receptor (Rattus norvegicus, UniProt P30543). As to the kind of experiment: Receptor binding assay with [3H]MSX-2 on A2A-adenosine receptors. Further details: tissue Pel Freez Company (Rogers, Ark., USA); host or cells: rat brain striatum membranes. Conditions: for pKi: Table 2, [3H]MSX-2, read-out: A2A K1. The text has this:
(§1) The data of the biological tests that are cited below results from radioligand-binding assays on A1, A2A, A2B and A3 adenosine receptors (ARs).
(§2) The following selective radioligands are used in the biological tests: • [^3H]CCPA (for A1 ARs) [Klotz et al., Naunyn-Schmiedeberg's Arch. Pharmacol., 340, 679 (1989)] • [^3]MSX-2 (for A2A ARs) [Muiller et al., Eur. J. Pharm. Sci., 10, 259 (2000)] • [^3H]ZM241385 (for A2B ARs_[X.-D. Ji, K. A. Jacobson, Drug Des. Discov., 16, 217 (1999)] • [^3H]PSB-11 (new antagonistic radioligand for human A3 ARs) [M. Dieckmann, M. Thorand, V. Ozola, C. E. Muiller, in Vorbereitung [Preparation] (2001)]. • [^125I]AB-MECA (for rat-A3 ARs) [Olah et al., Mol. Pharmacol., 45, 978 (1994)]. Description of the Assays That are Used for Testing Substances Production of Tissue Preparations Made from Rat Brains
(§3) The cell decomposing of the cerebral cortex is carried out with a glass-Teflon homogenizer (stages 5-6, 10 seconds) in 0.32 M saccharose solution. The membranes are purified over various centrifuging steps. With centrifuging at 600 g, 4° C., for 10 minutes, a large amount of cell debris is separated via the P1 fraction, and the supernatant (P2 fraction) is further worked up: in the subsequent three centrifuging steps (35,000 g; 4° C.; 60 minutes), a pellet is produced that is resuspended in 50 mmol of TRIS buffer, pH 7.4 with the Ultraturrax (stages 3-4, 3 seconds); the respective supernatant is discarded. The striata are added to cold TRIS buffer, homogenized with the Ultraturrax in stages 3 to 4-(3 seconds) and then centrifuged at 35,000 g, 4° C., for 20 minutes. The supernatant is discarded, and the pellet is resuspended in 50 mmol of TRIS buffer (50 mmol, pH 7.4). The washing process is repeated twice more. The membrane preparations are stored at −80° C. and are held for several months. The cerebral cortex membrane preparation is used for A1-radioligand binding studies, and the striatum is used for A2A-radiologiand binding studies.
(§4) The test substances are dissolved in DMSO to 10 mmol. The final concentration of DMSO in the assay is 2.5% for A1- and A2A-adenosine receptor assays and 1-2% for A2B- and A3-assays. Dilution series of the test substances are produced from the stock solution. Five to eight different test concentrations, which comprise 3 orders of magnitude (e.g., 1 nm to 1000 nm), are used.
Receptor Binding Assay with [^3H]MSX-2 on A2A-Adenosine Receptors:
• 25 μl of DMSO, NECA (800 μmol) or test substance dilutions • 775 μl of TRIS buffer (for production, see above) • 100 μl of [^3H]MSX-2 (final concentration 1 nmol; KD value 8 nmol) • 100 μl of rat-striatum-membrane preparation or preparation of CHO cells, which express the human A2A receptor, incubated with 0.12 IE adenosine-deaminase (protein concentration: 25-75 μg/ml) • 1000 μl of final volume
The assay is performed according to the instructions of the receptor-binding assay with [^3H]CCPA with consideration of the amounts and solutions that are listed above. The incubation time is 30 minutes at 23° C. in an oscillating water bath. The glass fiber filter is introduced 30 minutes before use in 0.5% PEI solution.
(§5) The mean value is calculated from three independent experiments. IC50 and K, values are obtained from the Cheng-Prusoff equation, the concentration and the KD value of the radioligand. For calculation, the program GraphPadPrism™, Version 3.0 (GraphPad, San Diego, Calif., USA), was used.

The next assay has as its target T1, A1 adenosine receptor (Rattus norvegicus, UniProt P25099).
T1 sequence (P25099 1-326): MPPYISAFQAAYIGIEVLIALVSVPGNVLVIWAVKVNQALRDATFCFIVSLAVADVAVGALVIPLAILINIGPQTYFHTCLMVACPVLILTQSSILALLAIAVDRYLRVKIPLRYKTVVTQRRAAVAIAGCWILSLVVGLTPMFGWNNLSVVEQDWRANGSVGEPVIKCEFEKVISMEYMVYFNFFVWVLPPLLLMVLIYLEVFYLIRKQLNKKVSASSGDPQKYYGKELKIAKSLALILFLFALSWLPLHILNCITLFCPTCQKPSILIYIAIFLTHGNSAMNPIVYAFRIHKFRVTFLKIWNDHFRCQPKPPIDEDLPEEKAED
As to the kind of experiment: Radioligand binding with [3H]CCPA on A1-adenosine receptors, rat brain cortex membranes. The note with it: for pKi: Table 2, [3H]CCPA, read-out: A1 K1. Also on record: tissue Pel Freez Company (Rogers, Ark., USA); host or cells: rat brain cerebral cortex membranes.
Text: as §1, §2
For the preparations, deep-frozen rat brains of the Pel Freez Company (Rogers, Ark., USA) are used. The rat brains are thawed in 0.32 M saccharose solution, the cortex is cut off, and the striata are prepared outside.
as §3, §4
Radioligand Binding Studies with [^3H]CCPA on A1-Adenosine Receptors:
The mixture is incubated for 90 minutes in an oscillating water bath at 23° C. Then, it is filtered off with a Brandel cell-harvester and washed twice more with ice-cooled TRIS buffer, 50 mmol, pH 7.4 (3 ml). The filter plates are conveyed in scintillation vials, doused with 2.5 ml of Ultima Gold Scintillation cocktail and incubated for at least 6 hours before they are measured in a scintillation counter.
as §5

pKi: −log10 of the molar value.

Chain of A2A adenosine receptor (P30543 whole entry): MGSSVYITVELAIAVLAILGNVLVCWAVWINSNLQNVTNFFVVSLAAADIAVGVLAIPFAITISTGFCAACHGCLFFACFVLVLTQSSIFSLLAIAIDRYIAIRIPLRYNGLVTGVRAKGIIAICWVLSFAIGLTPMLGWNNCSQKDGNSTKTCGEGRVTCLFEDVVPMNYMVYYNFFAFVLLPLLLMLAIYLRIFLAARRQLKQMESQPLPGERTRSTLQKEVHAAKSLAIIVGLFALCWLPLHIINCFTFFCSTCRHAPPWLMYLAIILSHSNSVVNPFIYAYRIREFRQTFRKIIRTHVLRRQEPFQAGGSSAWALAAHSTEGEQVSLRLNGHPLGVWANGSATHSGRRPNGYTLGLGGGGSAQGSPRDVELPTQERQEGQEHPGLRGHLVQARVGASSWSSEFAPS

As to “4-(chloropyrazolyl)-1-(3-phenylpropyl)-[1,2,4-]triazolo[4,3-a]quinoxaline [Y = C—CH2—CH2—CH2-Ph, R5 = H, R6 = Cl]”, at A2A adenosine receptor, the “A2A % inhib. @ 10 μmol” value is “(6%)” and the pKi was below 5.00. Further, the pKi at A1 adenosine receptor was 8.22.
Regarding `COc1ccc2c(c1)nc(-c1cc(Cl)n[nH]1)c1nnc(Cc3cccs3)n12` [4-[3(5)-Chloro-1H-pyrazol-5(3)-yl]-7-methoxy-1-(2-thienylmethyl)-[1,2,4]triazolo[4,3-a]-quinoxaline], the pKi at A2A adenosine receptor is 5.30; at A1 adenosine receptor, 6.05.
On to `Clc1cc(-c2nc3ccccc3n3c(-c4ccoc4)nnc23)n[nH]1` [Y = C-(3-Furyl), R5 = H, R6 = Cl], for which the pKi on A2A adenosine receptor was 5.90; on A1 adenosine receptor, 6.49.
The matching figures for `Cn1nc(-c2nc3ccccc3n3c(Cc4cccs4)nnc23)cc1Cl` [Y = C—CH2-(2-Thienyl), R5 = CH3, R6 = Cl, 4-(5-Chloro-1H-1-methyl-pyrazol-3-yl)-1-(2-thienylmethyl)-[1,2,4]triazolo[4,3-a]-quinoxaline]: 5.06 and 6.68.
On to `COc1ccc2c(c1)nc(-c1cc(Cl)[nH]n1)c1nncn12` [Y = C—H, R3 = OCH3, R5 = H, R6 = Cl, 4-[3(5)-Chloro-1H-pyrazol-5(3)-yl]-7-methoxy-[1,2,4]triazolo[4,3-a]-quinoxaline], for which, on A2A adenosine receptor, the “A2A % inhib. @ 10 μmol” value is on record as “(1%)” and the pKi was below 5.00. For the same compound, at A1 adenosine receptor, the “A1 % inhib. @ 10 μmol” value is “(13%)” and the pKi is below 5.00.
Consider `Clc1cc(-c2nc3ccccc3n3cnnc23)[nH]n1` [Y = C—H, R5 = H, R6 = Cl], for which, at A2A adenosine receptor, the “A2A % inhib. @ 10 μmol” value is reported as “(21%)” and the pKi was below 5.00. For the same compound, at A1 adenosine receptor, the “A1 % inhib. @ 10 μmol” value is reported as “(35%)” and the pKi is below 5.00.
With `Clc1cc(-c2nc3ccccc3n3nnnc23)n[nH]1` [Y = N, R5 = H, R6 = Cl, 4-[3(5)-Chloro-1H-pyrazol-5(3)-yl]tetrazolo[1,5-a]quinoxaline], the pKi at A2A adenosine receptor is 5.21; on A1 adenosine receptor, 6.17.

Source of the values: patent publication US20050107611A1, “Pyrazolyl-substituted triazoloquinoxalines” (priority 2001, published 2005).
